How the values were obtained:
Assay type in all cases: functional
[1] = tested on: Acinetobacter calcoaceticus; experiment: Antibacterial activity against Acinetobacter calcoaceticus OSMPV 113 (Gram negative) strain.
[2] = tested on: Escherichia coli; experiment: Antibacterial activity against Escherichia coli ATCC 8739(Gram negative) strain.
[3] = tested on: Escherichia coli; experiment: Antibacterial activity against Escherichia coli ISF 432(Gram negative) strain.
[4] = tested on: Enterobacter cloacae; experiment: Antibacterial activity against Enterobacter cloacae OMNFI 174 (Gram negative) strain.
[5] = tested on: Klebsiella pneumoniae; experiment: Antibacterial activity against Klebsiella pneumoniae ATCC 10031 (Gram negative) strain.
[6] = tested on: Providencia stuartii; experiment: Antibacterial activity against Providencia stuartii CNUR 5(Gram negative) strain.
[7] = tested on: Pseudomonas aeruginosa; experiment: Antibacterial activity against Pseudomonas aeruginosa ATCC 9027(Gram negative) strain.
[8] = tested on: Shigella; experiment: Antibacterial activity against Shigella enteritidis (Gram negative) strain.
[9] = tested on: Staphylococcus epidermidis; experiment: Antibacterial activity against Staphylococcus epidermidis HCF Berset C (Gram positive) strain.
[10] = tested on: Staphylococcus epidermidis; experiment: Antibacterial activity against Staphylococcus epidermidis CPHL A2 (Gram positive) strain, activity is expressed as log2MIC.
[11] = tested on: Staphylococcus aureus; experiment: Antibacterial activity against Staphylococcus aureus MPR 5 (Gram positive) strain.
[12] = tested on: Enterococcus faecalis; experiment: Antibacterial activity against Streptococcus faecalis LEP Br (Gram positive) strain.
[13] = tested on: Staphylococcus aureus; experiment: Antibacterial activity against Staphylococcus aureus ATCC 6538 (Gram positive) strain.

Structure (SMILES) | Log2 MIC [1] | Log2 MIC [2] | Log2 MIC [3] | Log2 MIC [4] | Log2 MIC [5] | Log2 MIC [6] | Log2 MIC [7] | Log2 MIC [8] | Log2 MIC [9] | Log2 MIC [10] | Log2 MIC [11] | Log2 MIC [12] | Log2 MIC [13]
Nc1cc2c(=O)c(C(=O)O)cn(C3CC3)c2c(F)c1N1CCSCC1 | 7 | 10 | 11 | 7 | 12 | 8 | 5 | 5 | 7 | 8 | 9 | 5 | 8
NCCN1CCN(c2cc3c(cc2N)c(=O)c(C(=O)O)cn3C2CC2)CC1 | 2 | 8 | 8 | 6 | 8 | 0 | 2 | 6 | 2 | 1 | 0 | 0 | 0
NCCSc1cc2c(cc1N)c(=O)c(C(=O)O)cn2C1CC1 | 0 | 7 | 7 | 0 | 6 | 0 | 0 | 0 | 0 | 0 | 0 | 0 | 0
CN1CCN(c2c(N)c(N)c3c(=O)c(C(=O)O)cn(C4CC4)c3c2F)CC1 | 6 | 12 | 12 | 10 | 12 | 6 | 5 | 9 | 5 | 5 | 6 | 5 | 6
CN1CCN(c2cc3c(c(N)c2N)c(=O)c(C(=O)O)cn3C2CC2)CC1 | 0 | 3 | 3 | 0 | 2 | 0 | 0 | 0 | 0 | 0 | 0 | 0 | 0
Nc1cc2c(=O)c(C(=O)O)cn(C3CC3)c2cc1N1CCSCC1 | 7 | 12 | 12 | 8 | 12 | 7 | 6 | 8 | 6 | 7 | 8 | 4 | 8
Nc1cc2c(=O)c(C(=O)O)cn(C3CC3)c2cc1NC1CC1 | 0 | 6 | 5 | 1 | 6 | 0 | 0 | 1 | 0 | 0 | 0 | 0 | 0
Nc1cc2c(=O)c(C(=O)O)cn(C3CC3)c2cc1N1CCCC1 | 0 | 9 | 9 | 4 | 9 | 0 | 0 | 3 | 0 | 0 | 0 | 0 | 0
Nc1cc2c(=O)c(C(=O)O)cn(-c3ccc(F)cc3)c2cc1N1CCSCC1 | 5 | 11 | 12 | 5 | 12 | 5 | 0 | 5 | 5 | 5 | 7 | 0 | 8
CN1CCN(c2cc3c(cc2N)c(=O)c(C(=O)O)cn3-c2ccc(F)cc2)CC1 | 3 | 10 | 10 | 5 | 10 | 5 | 4 | 5 | 4 | 4 | 5 | 1 | 4
Cc1c(N2CCNCC2)c(N)cc2c(=O)c(C(=O)O)cn(C3CC3)c12 | 6 | 12 | 12 | 11 | 12 | 6 | 7 | 12 | 4 | 5 | 5 | 3 | 6
Nc1cc2c(=O)c(C(=O)O)cn(C3CC3)c2cc1N1CCC(O)CC1 | 0 | 12 | 12 | 6 | 12 | 4 | 4 | 6 | 5 | 6 | 5 | 4 | 5
N#CCN1CCN(c2cc3c(cc2N)c(=O)c(C(=O)O)cn3C2CC2)CC1 | 1 | 5 | 6 | 6 | 6 | 1 | 2 | 6 | 1 | 1 | 1 | 1 | 1
CC(C)(C)n1cc(C(=O)O)c(=O)c2cc(N)c(N3CCN(c4ccccn4)CC3)cc21 | 7 | 8 | 8 | 1 | 9 | 0 | 0 | 1 | 6 | 7 | 7 | 3 | 7
CN1CCN(c2c(N)cc3c(=O)c(C(=O)O)cn(C4CC4)c3c2F)CC1 | 4 | 7 | 11 | 9 | 11 | 5 | 6 | 8 | 4 | 5 | 5 | 1 | 5
CN1CCN(c2nc3c(cc2N)c(=O)c(C(=O)O)cn3C2CC2)CC1 | 5 | 10 | 12 | 10 | 12 | 6 | 6 | 10 | 5 | 5 | 5 | 0 | 5
Nc1cc2c(=O)c(C(=O)O)cn(C3CC3)c2cc1N1CCNCC1 | 3 | 9 | 12 | 9 | 9 | 2 | 6 | 8 | 3 | 3 | 1 | 0 | 1
